Assays:
[1] = biological target: D2 dopamine receptor (Rattus norvegicus (Rat), UniProt P61169); experiment: Affinity on dopamine D2 receptor, competition with [3H] Spiperone; format: binding; design: D2 receptor inhibition ratio (%): concentration or dose not given beside the values
Protocol: (§1) (1). Determination of the Affinity of Hexahydrodibenzo[a,g]Quinolizine Compound of General Formula I and Derivatives Thereof on Dopamine D1, Dopamine D2, 5-HT1A, and 5-HT2A Receptor.
(§2) 1) The Experimental Method
(§3) Different concentrations (10^−5 M-10^−11 M) of the compound of the invention and corresponding isotope receptor ligand as well as receptor protein were loaded into the reaction tube and incubated in 30° C. water bath for 60 minutes. The reaction was terminated in a refrigerator. The reaction mixture was put in a Millipore filter (millipore) cell sample collector, filtered through suction filtration using GF/C glass fiber filter paper, and dried. The resulting sample was placed into 0.5 mL tube. 500 μL liquid scintillation fluid was added and intensity of radioactivity was determined by counting.
(§4) (1) Construction of receptor and materials for cell culture: Escherichia coli. DH5α strain; insect virus transfer vector pVL1393 plasmid; BaculoGold linear Chinese baculovirus DNA, purchased from ParMingen company; mkD1RcDNA; rD2R cDNA; various restriction endonucleases, TaqDNA polymerase, T4 ligase, etc., LB medium; insect cell culture TNM-FH.
(§5) (2) the Experimental Materials for Receptor Binding
(§6) Firstly, the above […] are dissolved in DMSO and then diluted with double distilled water to the appropriate concentration (10^−5 M-10^−11 M).
(§7) (+) Butaclamo purchased from RBI company, GF/C glass fiber filter paper purchased from Whatman Co., scintillation fluid (dopamine D1, D2 receptors)/liposoluble scintillation fluid (5-HT1A, 5-HT2A receptor), Beckman LS-6500 multi-function liquid scintillation counter.

[2] = biological target: dopamine D1 receptor (Macaca mulatta (Rhesus macaque), UniProt O77680); experiment: Affinity on dopamine D1 receptor, competition with [3H] SCH23390; format: binding; design: D1 receptor inhibition ratio (%): concentration or dose not given beside the values
dopamine D1 receptor, sequence (O77680 whole entry): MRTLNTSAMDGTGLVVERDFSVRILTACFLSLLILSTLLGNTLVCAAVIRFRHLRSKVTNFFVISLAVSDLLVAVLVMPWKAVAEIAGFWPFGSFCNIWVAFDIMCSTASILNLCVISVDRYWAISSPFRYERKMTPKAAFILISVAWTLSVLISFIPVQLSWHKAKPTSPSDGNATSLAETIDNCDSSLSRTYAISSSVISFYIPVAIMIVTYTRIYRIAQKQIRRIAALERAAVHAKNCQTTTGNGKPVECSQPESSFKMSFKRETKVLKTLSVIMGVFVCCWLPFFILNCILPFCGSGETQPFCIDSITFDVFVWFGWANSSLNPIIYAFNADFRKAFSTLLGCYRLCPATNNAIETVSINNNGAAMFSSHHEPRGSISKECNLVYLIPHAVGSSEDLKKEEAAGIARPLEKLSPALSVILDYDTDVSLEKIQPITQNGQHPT
Protocol: as §1, §2, §3, §4, §5, §6, §7

[3] = biological target: 5-HT1A receptor (Homo sapiens (Human), UniProt P08908); experiment: Affinity on 5-HT1A receptor, competition with [3H] 8-OH-DPAT; format: binding
5-HT1A receptor, sequence (P08908 whole entry): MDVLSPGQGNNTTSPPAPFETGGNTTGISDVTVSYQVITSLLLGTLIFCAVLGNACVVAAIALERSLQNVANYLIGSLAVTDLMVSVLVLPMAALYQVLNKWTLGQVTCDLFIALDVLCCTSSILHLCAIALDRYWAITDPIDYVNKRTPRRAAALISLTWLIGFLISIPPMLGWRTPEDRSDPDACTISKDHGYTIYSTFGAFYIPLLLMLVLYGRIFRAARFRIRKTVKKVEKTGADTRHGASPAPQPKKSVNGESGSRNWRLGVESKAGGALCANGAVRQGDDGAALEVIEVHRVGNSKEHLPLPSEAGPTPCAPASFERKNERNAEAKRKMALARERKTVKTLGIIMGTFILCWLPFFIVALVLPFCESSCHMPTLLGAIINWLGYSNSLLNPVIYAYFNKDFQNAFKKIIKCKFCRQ
Protocol: as §1, §2, §3, §5
8-OH-DPAT; 5-HT1A receptor protein expressed in HEK-293 cells;
as §6, §7

[4] = biological target: D1 receptor (Homo sapiens (Human), UniProt P21728); experiment: [35S]GTPγS binding assay for D1 receptor; format: biochemical; settings: [35S]GTPγS binding; read-out: D1 agonist Emax %
D1 receptor, sequence (P21728 whole entry): as the sequence (O77680 whole entry) above, with I311N counted along it

D2 dopamine receptor, sequence (P61169 whole entry): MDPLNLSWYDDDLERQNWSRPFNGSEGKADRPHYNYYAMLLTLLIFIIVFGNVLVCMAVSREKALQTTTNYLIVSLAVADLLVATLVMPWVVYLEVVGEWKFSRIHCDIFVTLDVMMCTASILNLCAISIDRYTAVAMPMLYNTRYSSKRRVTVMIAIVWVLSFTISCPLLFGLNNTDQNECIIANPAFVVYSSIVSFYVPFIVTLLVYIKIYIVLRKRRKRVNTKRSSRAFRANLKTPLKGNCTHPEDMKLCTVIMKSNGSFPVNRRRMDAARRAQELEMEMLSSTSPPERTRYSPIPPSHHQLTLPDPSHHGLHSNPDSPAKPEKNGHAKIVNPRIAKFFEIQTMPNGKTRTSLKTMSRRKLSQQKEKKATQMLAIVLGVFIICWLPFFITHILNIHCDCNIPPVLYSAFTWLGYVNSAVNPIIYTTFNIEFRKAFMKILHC

COc1ccc2c(c1)CCN1Cc3cc(OC)c(OC)cc3C[C@@H]21 [DC037010, S-(+3,10,11-trimethoxy-5,8,13,13a-tetrahydro-6H-dibenzo[a,g]quinolizine]
D2 receptor inhibition ratio (%) [1]: 51.5%
D1 receptor inhibition ratio (%) [2]: 66.8%

COc1cc2c(cc1OC)[C@@H]1Cc3cc4c(cc3CN1CC2)OCO4 [DC037011, S-(−)-2,3-bimethoxy-10,11-methylenedioxy-5,8,13,13a-tetrahydro-6H-dibenzo[a,g]quinolizine]
D2 receptor inhibition ratio (%) [1]: 41.7%
D1 receptor inhibition ratio (%) [2]: 59.3%

c1c2c(cc3c1OCO3)CN1CCc3cc4c(cc3[C@@H]1C2)OCO4 [DC037012, S-(−)-2,3,10,11-bimethylenedioxy-5,8,13,13a-tetrahydro-6H-dibenzo[a,g]quinolizine]
D2 receptor inhibition ratio (%) [1]: 89.3%
IC50 [1]: 1240 nM
Ki [1]: 240 nM
D1 receptor inhibition ratio (%) [2]: 95.8%
IC50 [2]: 300 nM
Ki [2]: 148 nM

COc1cc2c(cc1OC)CN1CCc3cc4c(cc3[C@@H]1C2)OCO4 [DC037015, S-(−)-2,3-methylenedioxy-10,11-bimethoxy-5,8,13,13a-tetrahydro-6H-dibenzo[a,g]quinolizine]
D2 receptor inhibition ratio (%) [1]: 59.3%
D1 receptor inhibition ratio (%) [2]: 59.2%

COc1cc2c(c(OC)c1OC)CN1CCc3cc4c(cc3[C@@H]1C2)OCO4 [DC037016, S-(−)-2,3-methylenedioxy-9,10,11-bimethoxy-5,8,13,13a-tetra-hydro-6H-dibenzo[a,g]quinolizine]
D2 receptor inhibition ratio (%) [1]: 66.2%
D1 receptor inhibition ratio (%) [2]: 95.5%
IC50 [2]: 763 nM
Ki [2]: 377 nM

COc1cc2c(cc1OC)[C@@H]1Cc3cc(OC)c(OC)c(OC)c3[C@H](C)N1CC2 [DC037019, (8S,14S)-2,3,9,10,11-pentamethoxyl-8-methyl-5,8,13,13a-tetra-hydro-6H-dibenzo[a,g]quinolizine]
D2 receptor inhibition ratio (%) [1]: 65.3%
D1 receptor inhibition ratio (%) [2]: 10.3%

COc1cc2c(cc1OC)[C@@H]1Cc3cc4c(cc3[C@H](C)N1CC2)OCO4 [DC037020, (8S,14S)-2,3-bimethoxy-8-methyl-10,11-methylenedioxy-5,8,13,13a-tetrahydro-6H-dibenzo[a,g]quinolizine]
D2 receptor inhibition ratio (%) [1]: 57.1%
D1 receptor inhibition ratio (%) [2]: 47.3%

Cc1ccc(C)c2c1CC1c3cc4c(cc3CCN1C2)OCO4 (stereo not drawn) [DC037033, S-(−)-2,3-methylenedioxy-9,12-dimethyl-5,8,13,13a-tetrahydro-6H-dibenzo[a,g]quinolizine]
D2 receptor inhibition ratio (%) [1]: 13.75%
D1 receptor inhibition ratio (%) [2]: 91.94%

COc1ccc(OC)c2c1C[C@H]1c3cc4c(cc3CCN1C2)CCO4 [DC037034, S-(+9,12-bimethoxy-2,3,5,8,13,13a-hexahydro-8H-benzo[3,2,a,g]furanquinolizine]
IC50 [2]: 484 nM
Ki [2]: 248 nM
Ki [3]: 497 nM

COc1c(O)ccc2c1CN1CCc3cc4c(cc3[C@@H]1C2)OCCO4 [DC037082, S-(−)-2,3-bimethylenedioxy-9-methoxyl-10-hydroxy-5,8,13,13a-tetrahydro-6H-dibenzo[a,g]quinolizine]
D2 receptor inhibition ratio (%) [1]: 63.94%
affinity on dopamine D2 receptor (in words) ([1]; summary of the tables): strong affinity
D1 receptor inhibition ratio (%) [2]: 99.32%
IC50 [2]: 14.7 nM
Ki [2]: 7.51 nM
affinity on dopamine D1 receptor (in words) ([2]; summary of the tables): strong affinity

Oc1cc2c(cc1O)C(c1ccccc1)CNCC2 (centres unmarked) [SKF38393, reference compound]
Emax [4]: 100%

Reference: US9359372B2, “Hexahydrodibenzo[a,g]quinolizine compound, preparation method thereof, pharmaceutical composition and use thereof” (SHANGHAI INSTITUTE OF MATERIA MEDICA, CHINESE ACADEMY OF …, priority 2011, dated 2016)
